Measured values reported in the NIST ThermoML archive (doi:10.1016/j.jct.2018.07.015).

Test: mn = molality of the nth substance listed, in mol/kg
Details: 100 kPa, Liquid; for speed of sound: Frequency=3 MHz, Single path-length method; for mass density: Vibrating tube method

OCC(O)CO [glycerol] + O
Details | mass density, 293.15 K [kg/m3] | mass density, 298.15 K [kg/m3] | mass density, 303.15 K [kg/m3] | mass density, 308.15 K [kg/m3] | speed of sound, 293.15 K [m/s] | speed of sound, 298.15 K [m/s] | speed of sound, 303.15 K [m/s] | speed of sound, 308.15 K [m/s]
m1 = 0.01 | 998.452 | 997.308 | 995.869 | 994.253 | 1483.2 | 1497 | 1509.3 | 1519.9
m1 = 0.03 | 998.865 | 997.707 | 996.304 | 994.684 | 1484 | 1497.8 | 1510 | 1520.6
m1 = 0.05 | 999.29 | 998.124 | 996.72 | 995.094 | 1484.8 | 1498.6 | 1510.7 | 1521.2
m1 = 0.07 | 999.691 | 998.513 | 997.109 | 995.469 | 1485.5 | 1499.3 | 1511.4 | 1521.8

O [water] + OCC(O)CO
m2 = 0
Details | speed of sound [m/s]
298.15 K | 1495.8
308.15 K | 1519.1
